{"source": "patent US20220162537A1", "about": "“FLUID SYSTEM FOR PRODUCING EXTRACELLULAR VESICLES COMPRISING A THERAPEUTIC OR IMAGING AGENT AND METHOD THEREOF” (CENTRE NATIONAL DE LA RECHERCHE SCIENTIFIQUE, priority 2018, published 2022)", "system": "HT29 tumors", "test": "HT29 tumor growth retardation after photodynamic therapy (Kaplan-Meier)", "type": "in vivo, mice", "conditions": "photodynamic therapy with laser activation", "from_the_text": "FIG. 8 illustrates Kaplan-Meier diagrams of HT29 tumor growth retardation after treatment with free mTHPC; the liposomal formulation of mTHPC (mTHPC Liposome) and mTHPC vesicles with laser activation of the drug (photodynamic therapy), compared to the same groups without laser activation (control, dotted lines).\nFIG. 8 illustrates Kaplan-Meier diagrams of tumor growth retardation HT29 after treatment with free mTHPC; the liposomal formulation of mTHPC and mTHPC-EVs with laser activation of the drug (photodynamic therapy, three-dimensional therapies), compared to the same groups without laser activation (control, dotted lines). The inventors have compared the therapeutic effect of EVs mTHPC, the liposomal formulation of mTHPC and free mTHPC in terms of tumor growth, 90 days after treatment. […] Thus, compared to the liposomes, the charged vesicles of active agents obtained according to the methods of the present invention can constitute a very advantageous alternative both of the point of view of the pharmacodynamics properties and the effectiveness of the treatment carried out. The liposomes are known for the vectorization of various biomolecules such as enzymes, hormones, antisense oligonucleotides, ribozymes, proteins or DNA peptides, cancer molecules (Farjadian et al 2018). […]", "data": [{"compound": "Oc1cccc(-c2c3nc(c(-c4cccc(O)c4)c4ccc([nH]4)c(-c4cccc(O)c4)c4nc(c(-c5cccc(O)c5)c5ccc2[nH]5)CC4)C=C3)c1", "note": "[mTHPC, meta-tetra (hydroxyphenyl) chlorin]", "values": [{"measurement": "percentage of tumors (growth 10 times higher criterion) at day 90", "value": 20, "unit": "%"}]}]}
